According to PubChem BioAssay (NCI):
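GI50: concentration for 50% inhibition of growth. TGI: total growth inhibition.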

What was measured:
Assay in all cases: growth of human tumour cells (NCI), 384-well format
SF-539 CNS = test system: SF-539 CNS
MALME-3M melanoma = test system: MALME-3M melanoma
IGROV1 ovarian = test system: IGROV1 ovarian
SNB-19 CNS = test system: SNB-19 CNS
CAKI-1 renal = test system: CAKI-1 renal
K-562 leukemia = test system: K-562 leukemia
M14 melanoma = test system: M14 melanoma
RPMI-8226 leukemia = test system: RPMI-8226 leukemia
SK-MEL-5 melanoma = test system: SK-MEL-5 melanoma
NCI-H23 lung = test system: NCI-H23 lung
T-47D breast = test system: T-47D breast
SF-295 CNS = test system: SF-295 CNS
SW-620 colon = test system: SW-620 colon
HT29 colon = test system: HT29 colon
NCI-H522 lung = test system: NCI-H522 lung
U251 glioblastoma = test system: U251 glioblastoma
HL-60(TB) leukemia = test system: HL-60(TB) leukemia
UACC-62 melanoma = test system: UACC-62 melanoma
BT-549 breast = test system: BT-549 breast
SN12C renal = test system: SN12C renal
SNB-75 CNS = test system: SNB-75 CNS
A549 NSCLC = test system: A549 NSCLC
UACC-257 melanoma = test system: UACC-257 melanoma
CCRF-CEM leukemia = test system: CCRF-CEM leukemia
SF-268 CNS = test system: SF-268 CNS
HCT-15 colon = test system: HCT-15 colon
DU-145 prostate = test system: DU-145 prostate
HOP-92 NSCLC = test system: HOP-92 NSCLC
OVCAR-4 ovarian = test system: OVCAR-4 ovarian
HS 578T breast = test system: HS 578T breast
MOLT-4 leukemia = test system: MOLT-4 leukemia
OVCAR-8 ovarian = test system: OVCAR-8 ovarian
MDA-MB-468 breast = test system: MDA-MB-468 breast
PC-3 prostate = test system: PC-3 prostate
SK-MEL-28 melanoma = test system: SK-MEL-28 melanoma
A498 renal = test system: A498 renal
NCI-H322M lung = test system: NCI-H322M lung
OVCAR-3 ovarian = test system: OVCAR-3 ovarian
HOP-62 NSCLC = test system: HOP-62 NSCLC
KM12 colon = test system: KM12 colon
EKVX NSCLC = test system: EKVX NSCLC
HCC-2998 colon = test system: HCC-2998 colon
RXF 393 renal = test system: RXF 393 renal

With `COc1cc(F)ccc1-c1cc(Nc2cc(CS(C)(=N)=O)ccn2)ncc1F` (stereo unspecified) as the molecule, how does the GI50 (SF-539 CNS) read?
The GI50 was 26.3 nM.

And the TGI (SF-539 CNS)?
Its TGI is 69 nM.

And the GI50 (MALME-3M melanoma)?
Its GI50 is 50.3 nM.

What about the TGI (MALME-3M melanoma) of the same molecule?
Its TGI is 178 nM.

What about the GI50 (IGROV1 ovarian) of the same molecule?
Its GI50 is 33.7 nM.

And the TGI (IGROV1 ovarian)?
Its TGI is over 100000 nM.

What about the GI50 (SNB-19 CNS) of the same molecule?
The GI50 was 44.6 nM.

What about the TGI (SNB-19 CNS) of the same molecule?
Its TGI is over 100000 nM.

And the GI50 (CAKI-1 renal)?
The GI50 was 28.2 nM.

And the TGI (CAKI-1 renal)?
The TGI was over 100000 nM.

And the GI50 (K-562 leukemia)?
Its GI50 is 136 nM.

What about the TGI (K-562 leukemia) of the same molecule?
Its TGI is 567 nM.

And the GI50 (M14 melanoma)?
The GI50 was 34.7 nM.

And the TGI (M14 melanoma)?
Its TGI is 157 nM.

What about the GI50 (RPMI-8226 leukemia) of the same molecule?
Its GI50 is 41 nM.

What about the TGI (RPMI-8226 leukemia) of the same molecule?
Its TGI is 138 nM.

And the GI50 (SK-MEL-5 melanoma)?
Its GI50 is 28.3 nM.

And the TGI (SK-MEL-5 melanoma)?
Its TGI is 109 nM.

What about the GI50 (NCI-H23 lung) of the same molecule?
Its GI50 is 30.4 nM.

What about the TGI (NCI-H23 lung) of the same molecule?
The TGI was 130 nM.

What about the GI50 (T-47D breast) of the same molecule?
The GI50 was 46.2 nM.

What about the TGI (T-47D breast) of the same molecule?
Its TGI is over 100000 nM.

What about the GI50 (SF-295 CNS) of the same molecule?
Its GI50 is 35.3 nM.

And the TGI (SF-295 CNS)?
The TGI was 180 nM.

And the GI50 (SW-620 colon)?
The GI50 was 43.7 nM.

And the TGI (SW-620 colon)?
Its TGI is 475 nM.

And the GI50 (HT29 colon)?
The GI50 was 65.1 nM.

And the TGI (HT29 colon)?
The TGI was 257 nM.

And the GI50 (NCI-H522 lung)?
Its GI50 is 149 nM.

And the TGI (NCI-H522 lung)?
Its TGI is 385 nM.

What about the GI50 (U251 glioblastoma) of the same molecule?
Its GI50 is 43.3 nM.

What about the TGI (U251 glioblastoma) of the same molecule?
Its TGI is over 100000 nM.

And the GI50 (HL-60(TB) leukemia)?
The GI50 was 15.4 nM.

And the TGI (HL-60(TB) leukemia)?
The TGI was 29.4 nM.

What about the GI50 (UACC-62 melanoma) of the same molecule?
Its GI50 is 17.1 nM.

What about the TGI (UACC-62 melanoma) of the same molecule?
Its TGI is 49.2 nM.

What about the GI50 (BT-549 breast) of the same molecule?
The GI50 was 26.2 nM.

And the TGI (BT-549 breast)?
Its TGI is 74 nM.

What about the GI50 (SN12C renal) of the same molecule?
The GI50 was 23.3 nM.

And the TGI (SN12C renal)?
Its TGI is 121 nM.

What about the GI50 (SNB-75 CNS) of the same molecule?
Its GI50 is 50.9 nM.

And the TGI (SNB-75 CNS)?
Its TGI is 201 nM.

And the GI50 (A549 NSCLC)?
The GI50 was 42.9 nM.

And the TGI (A549 NSCLC)?
The TGI was over 100000 nM.

And the GI50 (UACC-257 melanoma)?
Its GI50 is 104 nM.

And the TGI (UACC-257 melanoma)?
The TGI was 251 nM.

What about the GI50 (CCRF-CEM leukemia) of the same molecule?
Its GI50 is 17.6 nM.

What about the TGI (CCRF-CEM leukemia) of the same molecule?
Its TGI is 36.2 nM.

What about the GI50 (SF-268 CNS) of the same molecule?
Its GI50 is 17.1 nM.

And the TGI (SF-268 CNS)?
The TGI was 44.5 nM.

What about the GI50 (HCT-15 colon) of the same molecule?
Its GI50 is 38.7 nM.

What about the TGI (HCT-15 colon) of the same molecule?
The TGI was over 100000 nM.

What about the GI50 (DU-145 prostate) of the same molecule?
Its GI50 is 29.1 nM.

What about the TGI (DU-145 prostate) of the same molecule?
The TGI was 92.5 nM.

What about the GI50 (HOP-92 NSCLC) of the same molecule?
Its GI50 is 62.9 nM.

And the TGI (HOP-92 NSCLC)?
The TGI was 46000 nM.

And the GI50 (OVCAR-4 ovarian)?
Its GI50 is 165 nM.

And the TGI (OVCAR-4 ovarian)?
The TGI was 889 nM.

What about the GI50 (HS 578T breast) of the same molecule?
The GI50 was 15.5 nM.

What about the TGI (HS 578T breast) of the same molecule?
Its TGI is 41.6 nM.

And the GI50 (MOLT-4 leukemia)?
The GI50 was 27.3 nM.

What about the TGI (MOLT-4 leukemia) of the same molecule?
The TGI was 89.1 nM.

And the GI50 (OVCAR-8 ovarian)?
Its GI50 is 30.5 nM.

And the TGI (OVCAR-8 ovarian)?
The TGI was 112 nM.

What about the GI50 (MDA-MB-468 breast) of the same molecule?
Its GI50 is 58.7 nM.

And the TGI (MDA-MB-468 breast)?
Its TGI is 193 nM.

What about the GI50 (PC-3 prostate) of the same molecule?
Its GI50 is 39.9 nM.

What about the TGI (PC-3 prostate) of the same molecule?
Its TGI is 250 nM.

What about the GI50 (SK-MEL-28 melanoma) of the same molecule?
The GI50 was 30.4 nM.

What about the TGI (SK-MEL-28 melanoma) of the same molecule?
Its TGI is 167 nM.

And the GI50 (A498 renal)?
Its GI50 is 27 nM.

And the TGI (A498 renal)?
The TGI was over 100000 nM.

And the GI50 (NCI-H322M lung)?
The GI50 was 29.2 nM.

What about the TGI (NCI-H322M lung) of the same molecule?
Its TGI is 134 nM.

And the GI50 (OVCAR-3 ovarian)?
The GI50 was 24.2 nM.

And the TGI (OVCAR-3 ovarian)?
Its TGI is 80.1 nM.

What about the GI50 (HOP-62 NSCLC) of the same molecule?
The GI50 was 18.3 nM.

What about the TGI (HOP-62 NSCLC) of the same molecule?
The TGI was 45.5 nM.

And the GI50 (KM12 colon)?
The GI50 was 23.7 nM.

What about the TGI (KM12 colon) of the same molecule?
Its TGI is 73.5 nM.

What about the GI50 (EKVX NSCLC) of the same molecule?
The GI50 was 73.9 nM.

And the TGI (EKVX NSCLC)?
Its TGI is 498 nM.

And the GI50 (HCC-2998 colon)?
Its GI50 is 37.9 nM.

What about the TGI (HCC-2998 colon) of the same molecule?
The TGI was 207 nM.

And the GI50 (RXF 393 renal)?
Its GI50 is 16 nM.

And the TGI (RXF 393 renal)?
Its TGI is 37.6 nM.
